# Experimental data as given in patent publication US20090036497A1, “ECTOPARASITE CONTROL METHOD” (priority 2007, published 2009).
# Assays:
# adult H. irritans exigua = test: Adult H. irritans exigua feeding assay (blood meal assay); format: in vivo
# Protocol: Adult H. irritans exigua Feeding Assay
# A blood meal assay was used to determine the LC50 for test compound (3-bromo-1-(3-chloro-2-pyridinyl)-N-[4-cyano-2-methyl-6-[(methylamino)carbonyl]phenyl]-1H-pyrazole-5-carboxamide) on adult H.irritans exigua. Six (6) serial dilutions of the test compound were prepared in decoagulated bovine blood that was stored refrigerated. Ivermectin was included as a positive control compound and a negative control was included in each assay. Flies were collected with a net immediately before each assay from yarded commercial cattle. About 100 adults were introduced into a mesh cage (30×30×30 cm) containing one cotton gauze (4×4×1 cm) soaked in one blood/insecticide concentration. There were 3 replicate cages of each blood/insecticide concentration. Blood gauzes were replaced every 12 hours. The untreated control cages received untreated decoagulated blood. All cages were labelled and stored for 72 hours at 25-27° C. in the dark at ambient relative humidity (70-85%). […] Data was subjected to log-probit analysis to determine the LC50 if there is a dose response in the assay.
# Cat Fleas (C. felis) = test: In vivo evaluation against artificial infestations with cat fleas on dogs; conditions: for Flea efficacy compared to the untreated control: topical line-on (test compound 60 mg/kg in NMP); for Flea efficacy (%) compared to the untreated control: topical line-on, test compound 60 mg/kg in NMP
# From the text: (§1) In vivo evaluation Against Artificial Infestations With Cat Fleas (C. felis) and Brown Dog Ticks (R. sanguineus) on Dogs
# (§2) Twenty five dogs were used in this study that investigated the efficacy of test compound (3-bromo-1-(3-chloro-2-pyridinyl)-N-[4-cyano-2-methyl-6-[(methylamino)carbonyl]phenyl]-1H-pyrazole-5-carboxamide) against fleas and ticks. Two groups (one treated and one untreated) of five dogs were used to evaluate the flea efficacy whilst two groups of five dogs (one treated and one untreated) were used to investigate the tick efficacy. The dogs in the respective groups were infested weekly with 40 unfed adult ticks and 100 cat fleas. One group was treated with ADVANTIX and served as a positive control. The dogs in this group were infested simultaneously with fleas and ticks. Test compound was formulated in NMP. The treatment was applied topically via syringe on the dorsal line of the animals as a line-on at 60 mg/kg dose rate. The efficacy of the compound was assessed by weekly tick and flea counts. The weekly counts generated in the treated groups were compared to the positive and negative untreated control (UTC) group counts to evaluate efficacy of Test compound.
# [1] = test system: Brown Dog Ticks (R. sanguineus); test: In vivo evaluation against artificial infestations with brown dog ticks on dogs; conditions: for Tick efficacy (%) compared to the untreated control: topical line-on, test compound 60 mg/kg in NMP
# From the text: as §1, §2
# [2] = test system: cat flea (Ctenocephalides felis Bouche); test: In vivo evaluation against artificial infestations with cat fleas on mice; conditions: CD-1 mouse, 10 mg/kg oral in propylene glycol/glycerol formal (60:40), fleas applied 2 hours after dosing, evaluated 48 hours after flea application
# Protocol: In vivo Evaluation Against Artificial Infestations With Cat Fleas (C. felis) on Mice
# For evaluating control of the cat flea (Ctenocephalides felis Bouche), a CD-1® mouse (about 30 g, male, obtained from Charles River Laboratories, Wilmington, Mass.) was orally dosed with test compound in an amount of 10 mg/kg solubilized in propylene glycol/glycerol formal (60:40). Two hours after oral administration of the test compound, approximately 8 to 16 adult fleas were applied to each mouse. The fleas were then evaluated for mortality 48 hours after flea application to the mouse. 3-bromo-1-(3-chloro-2-pyridinyl)-N-[4-cyano-2-methyl-6-[(methylamino)carbonyl]phenyl]-1H-pyrazole-5-carboxamide caused 45% mortality.
# [3] = 200 ppb in bovine blood, exposure time 7 hr
# [4] = 200 ppb in bovine blood, exposure time 17 hr
# [5] = 200 ppb in bovine blood, exposure time 24 hr
# [6] = 400 ppb in bovine blood, exposure time 7 hr
# [7] = 400 ppb in bovine blood, exposure time 17 hr
# [8] = 400 ppb in bovine blood, exposure time 24 hr
# [9] = 600 ppb in bovine blood, exposure time 7 hr
# [10] = 600 ppb in bovine blood, exposure time 17 hr
# [11] = 600 ppb in bovine blood, exposure time 24 hr
compound,measurement,setting,value
"22,23-dihydroavermectin B1 [Ivermectin, reference compound]",% Adult mortality,adult H. irritans exigua; [3],78.5%
same,% Adult mortality,adult H. irritans exigua; [4],91.8%
same,% Adult mortality,adult H. irritans exigua; [5],93.1%
same,% Adult mortality,adult H. irritans exigua; [6],80.1%
same,% Adult mortality,adult H. irritans exigua; [7],94.2%
same,% Adult mortality,adult H. irritans exigua; [8],98.0%
same,% Adult mortality,adult H. irritans exigua; [9],86.0%
same,% Adult mortality,adult H. irritans exigua; [10],95.5%
same,% Adult mortality,adult H. irritans exigua; [11],100.0%
"CNC(=O)c1cc(C#N)cc(C)c1NC(=O)c1cc(Br)nn1-c1ncccc1Cl [Test compound, 3-bromo-1-(3-chloro-2-pyridinyl)-N-[4-cyano-2-methyl-6-[(methylamino)carbonyl]phenyl]-1H-pyrazole-5-carboxamide]",% Adult mortality,adult H. irritans exigua; [3],77.3%
same,% Adult mortality,adult H. irritans exigua; [4],78.8%
same,% Adult mortality,adult H. irritans exigua; [5],80.3%
same,% Adult mortality,adult H. irritans exigua; [6],78.8%
same,% Adult mortality,adult H. irritans exigua; [7],89.8%
same,% Adult mortality,adult H. irritans exigua; [8],94.9%
same,% Adult mortality,adult H. irritans exigua; [9],80.5%
same,% Adult mortality,adult H. irritans exigua; [10],94.7%
same,% Adult mortality,adult H. irritans exigua; [11],96.5%
same,Flea efficacy compared to the untreated control,Cat Fleas (C. felis); 2 days post-treatment,over 99.5%
same,Flea efficacy compared to the untreated control,Cat Fleas (C. felis); 9 days post-treatment,over 99.5%
same,Flea efficacy compared to the untreated control,Cat Fleas (C. felis); 16 days post-treatment,over 99.5%
same,Flea efficacy compared to the untreated control,Cat Fleas (C. felis); 30 days post-treatment,97.3%
same,Flea efficacy (%) compared to the untreated control,Cat Fleas (C. felis); Day 2,99.6%
same,Flea efficacy (%) compared to the untreated control,Cat Fleas (C. felis); Day 9,99.7%
same,Flea efficacy (%) compared to the untreated control,Cat Fleas (C. felis); Day 16,99.7%
same,Flea efficacy (%) compared to the untreated control,Cat Fleas (C. felis); Day 23,98.7%
same,Flea efficacy (%) compared to the untreated control,Cat Fleas (C. felis); Day 29,97.3%
same,Tick efficacy higher than the ADVANTIX,"[1]; 48 hours after treatment, difference to ADVANTIX",30%
same,Tick efficacy compared to the negative control,"[1]; topical line-on (test compound 60 mg/kg in NMP), 48 hours after treatment",74%
same,Tick efficacy compared to the untreated control,"[1]; topical line-on (test compound 60 mg/kg in NMP), 9 days post-treatment",over 94.9%
same,Tick efficacy compared to the untreated control,"[1]; topical line-on (test compound 60 mg/kg in NMP), 16 days post-treatment",90.5%
same,Tick efficacy compared to the untreated control,"[1]; topical line-on (test compound 60 mg/kg in NMP), 23 days post-treatment",90.6%
same,Tick efficacy compared to the untreated control,"[1]; topical line-on (test compound 60 mg/kg in NMP), 30 days post treatment",86.2%
same,Tick efficacy (%) compared to the untreated control,[1]; Day 2,74.0%
same,Tick efficacy (%) compared to the untreated control,[1]; Day 9,94.9%
same,Tick efficacy (%) compared to the untreated control,[1]; Day 16,95.0%
same,Tick efficacy (%) compared to the untreated control,[1]; Day 23,90.6%
same,Tick efficacy (%) compared to the untreated control,[1]; Day 29,86.2%
same,flea mortality,[2],45%
